Measurements as given in patent publication US6610494B2, “Solid-phase activity assay for biologically active substance” (priority 1996, dated 2003).

Experiments:
[1] = target: T1, trypsin egg white inhibitor (ovomucoid) (Gallus gallus, UniProt P01005); assay: BEISA: competition of unlabelled proteases with biotinylated trypsin for coated inhibitor; type: binding; settings: ovomucoid-coated plate
T1 construct: purchased Sigma Chemical Co. or Fisher Scientific Co
T1 sequence (P01005 25-210): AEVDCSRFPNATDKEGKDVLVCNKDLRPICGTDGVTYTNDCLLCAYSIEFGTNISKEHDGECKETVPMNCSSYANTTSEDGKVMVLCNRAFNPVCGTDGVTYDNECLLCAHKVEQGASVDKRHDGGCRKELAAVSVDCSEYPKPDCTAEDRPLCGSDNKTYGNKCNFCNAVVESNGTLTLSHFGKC
Experimental: The 96-well microtiter plate (Falcon 3911) was coated with trypsin egg white inhibitor (ovomucoid, 4 ug/100 ul/well) at […] overnight. The plate was washed once using PBST {[PBS, NaCl, 9.00; Na2HPO4, 1.15; NaH2PO4, 0.23 (g/l) pH 7.2] plus 0.05% Tween-20} and 200 ul of 5% skim milk was added to each well of the plate followed by incubation at 37° C. for 2 hours. The plate was rinsed twice with PBST and 50 ul of PBS was added to each well of the plate except for those in column one where 100 ul of PBS was added. Unlabelled trypsin (50 ul of 400 ug/ml) was added to the wells of the second column followed by successive double dilutions of trypsin in wells up to and including those in column 11. Biotinylated trypsin in PBS (50 ul of 1:3000 dilution of the stock to yield approximately 2 ug/100 ul/well) was added to each well except those in the first column followed by incubation at 37° C. for 1 hour. The final volume in each well was 100 ul. The blank set of wells with no trypsin (column 1) served as the negative control while the last set of wells (column 12) with biotinylated trypsin but no unlabelled trypsin served as the positive control. […] The absorbency was then read at 405 nm using a microplate reader (Bio-Rad laboratories Inc. Mississauga, ON, Canada, model 450). […]

[2] = system: biotinylated α-casein; assay: Solid phase protease activity assay using biotinylated casein; type: biochemical
Experimental: Preparation of biotinylated casein: 12 mg α-casein in 1 ml of 0.1 M pH 7.2 phosphate-buffer saline [PBS, NaCl, 9.00; Na2HPO4, 1.15; NaH2PO4, 0.23 (g/l)] was allowed to react with 3.6 mg NHS-biotin in 150 ul DMSO for 2 hours at room temperature with gently shaking.
Assay procedure for protease activity using biotinylated casein: The microtitre plates except for the first column of 8 wells were coated using biotinylated α-casein in PBS (0.13 ug/well/100 ul) and incubated for 2 hours at 37° C. The plates were washed three times with 0.1 M PBST (PBS with 0.05% Tween-20). Different concentrations of the enzyme solution as indicated in FIGS. 12-14 (100 ul) were diluted with the appropriate buffer (see Table 2). They were added in triplicate to the wells of a plate followed by incubating in a humid atmosphere at 37° C. for 30 minutes. The plate was washed three times using PBST to terminate the protease reaction. A streptavidin-alkaline phosphatase solution (100 ul/well, 1:1000 dilution in bicarbonate buffer pH 9.5) was added to all wells in the plate except for the first column of 8 wells (as blank) and the plate was incubated at room temperature for 30 minutes. The blank set of wells contained only PBS, no added enzyme and no coating with biotinylated casein. The reaction was stopped by emptying and washing the plate six times with PBST. The pNPP substrate (100 ul/well, 1 mg/ml in 10% diethanolamine buffer pH9.8) was added to each well of the plate followed by incubation at room temperature for about 20 minutes. The absorbency was then read at 405 nm using a microplate reader (Bio-Rad laboratories, Ltd, Mississauga, ON, Canada; model 450). The best sensitivity was obtained when the maximum absorbency was around 2.0 optical density units.

[3] = optimal pH of each protease, 37° C., 30 minutes

Concentration of trypsin that could be detected [1]: 0.1 to 1.0 µg/mL
Sensitivity: amount of enzyme required to produce a 10% decrease in maximal absorbency ([2]; 0.5 hour hydrolysis): 30 ng/100 ul
Sensitivity (amount of enzyme required to hydrolyse 10% of the biotinylated α-casein) [2, 3]: 30 ng/100 ul/sample
Substance: trypsin
Hydrolysis of biotin-casein by proteases [2, 3]: Yes
